Source: US8168651B2, “Protein kinase modulators” (Cylene Pharmaceuticals, Inc., priority 2008, dated 2012)
Like-named read-outs stand apart in the source and are kept apart here.

How the values were obtained:
[1] = tested on: HCT-116 human colorectal carcinoma cells; assay: Cell-proliferation assay using Alamar Blue dye; type: cell-based; conditions: Homo sapiens;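 note: cells exposed to compound for about 4 days, then Alamar Blue added and dye fluorescence read after about 4 h, compared with medium-only control wells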
Jurkat = assay: Cell proliferation modulatory activity, Jurkat; type: cell-based
recombinant human PIM1 = recombinant human PIM1 (Homo sapiens (Human), UniProt P11309); assay: PIM-1 kinase activity in cell-free in vitro assay; type: biochemical; conditions: cell-free assay; for inhibition at 0.5 µM / PIM-1: % inh 500 nM: 500 nM compound; for inhibition at 0.5 µM: read-out: PIM-1: % inh 500 nM
K-562 = assay: Cell proliferation modulatory activity, K-562; type: cell-based; conditions: Homo sapiens, K562; K-562 cells
MV-4-11 = assay: Cell proliferation modulatory activity, MV-4-11; type: cell-based; conditions: Homo sapiens, MV4-11; MV-4-11 cells
recombinant human CK2 = recombinant human CK2 (Homo sapiens (Human), UniProt P68400); assay: CK2 assay (cell-free, 33P-ATP filter plate); type: biochemical; conditions: 500 nM compound, cell-free assay; read-out: CK2: % inh 500 nM
[2] = HCT-116, HCT-116, second HCT-116 column (c8), read-out: HCT-116 (uM), cell proliferation modulatory activity
[3] = HCT-116, read-out: HCT-116 (uM), cell proliferation modulatory activity, HCT-116, second HCT-116 column (c8)
[4] = HCT-116, second HCT-116 column (c8), read-out: HCT-116 (uM) cell proliferation modulatory activity

Sequence of recombinant human PIM1 (P11309 whole entry): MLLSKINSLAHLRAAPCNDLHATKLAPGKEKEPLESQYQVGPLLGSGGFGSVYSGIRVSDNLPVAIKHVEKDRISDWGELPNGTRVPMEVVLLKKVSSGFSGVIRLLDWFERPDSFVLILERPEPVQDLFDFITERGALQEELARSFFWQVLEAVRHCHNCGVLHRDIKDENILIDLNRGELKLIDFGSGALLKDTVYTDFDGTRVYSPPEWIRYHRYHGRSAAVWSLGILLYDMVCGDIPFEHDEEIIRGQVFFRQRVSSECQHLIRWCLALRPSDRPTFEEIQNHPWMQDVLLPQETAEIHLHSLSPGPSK
Sequence of recombinant human CK2 (P68400 whole entry): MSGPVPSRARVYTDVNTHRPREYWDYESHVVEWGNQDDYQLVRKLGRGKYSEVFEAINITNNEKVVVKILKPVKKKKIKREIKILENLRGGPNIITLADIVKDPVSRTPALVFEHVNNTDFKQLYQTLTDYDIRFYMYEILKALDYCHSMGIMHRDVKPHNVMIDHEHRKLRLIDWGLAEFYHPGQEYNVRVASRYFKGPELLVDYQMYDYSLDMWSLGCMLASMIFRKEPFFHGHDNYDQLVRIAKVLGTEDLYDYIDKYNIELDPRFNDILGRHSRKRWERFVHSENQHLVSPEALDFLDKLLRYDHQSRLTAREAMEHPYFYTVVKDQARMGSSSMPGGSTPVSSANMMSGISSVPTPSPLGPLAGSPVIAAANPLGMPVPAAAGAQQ
Sequence of recombinant human CK2 (P67870 whole entry partner): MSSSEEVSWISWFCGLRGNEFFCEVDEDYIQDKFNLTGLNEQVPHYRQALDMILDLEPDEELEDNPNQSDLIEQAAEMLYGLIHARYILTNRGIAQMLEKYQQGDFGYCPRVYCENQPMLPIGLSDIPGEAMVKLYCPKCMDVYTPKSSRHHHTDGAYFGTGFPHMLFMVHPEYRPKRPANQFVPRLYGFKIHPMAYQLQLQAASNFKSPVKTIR

Row | SMILES | IC50 [1, 2] | IC50 (Jurkat; Homo sapiens) | inhibition at 0.5 µM (recombinant human PIM1) | other results
1 | CN(C)c1ncc2c(n1)c(Nc1cccc(Cl)c1)nc1cc(C(=O)O)ccc12 | > 10 µM | 5.83 µM |  | 
2 | O=C(O)c1ccc2c(c1)nc(Nc1ccc(Oc3ccccc3)cc1)c1ccncc12 | > 10 µM | 22.9 µM | 57.2% | IC50 (recombinant human PIM1): > 1.1 µM
3 | O=C(O)c1ccc2c(c1)nc(Nc1ccccc1)c1nc(NCCCO)ncc12 |  | 7.9 µM | 49.3% | 
4 | Nc1nc2cc(C(=O)O)ccc2c2cnc(NC3CC3)nc12 | > 10 µM | 55.2 µM | 0.938% | 
5 | COc1cccc(Nc2ncc3c(n2)c(NC2CC2)nc2cc(C(=O)O)ccc23)c1 [drawing 1717] |  |  |  | IC50 (Jurkat): 54.6 µM; PIM-1: % inh 500 nM (recombinant human PIM1): 5.494%
6 | O=C(O)c1ccc2c(c1)nc(NC1CC1)c1nc(Nc3ccccc3)ncc12 [drawing 1618] |  | 4.6 µM | 46% | IC50 [1, 3]: > 10 µM
7 | O=C(O)c1ccc2c(c1)nc(NC1CC1)c1nc(SCc3ccccc3Cl)ncc12 [drawing 1614] | > 10 µM | 29.3 µM | 7.49% | 
8 | C#Cc1cccc(Nc2nc3cc(C(=O)N4CCCC4)ccc3c3cncnc23)c1 | > 10 µM | 13.3 µM | -7.6% | 
9 | Cc1ccccc1Nc1ncc2c(n1)c(NC1CC1)nc1cc(C(=O)O)ccc12 | > 10 µM | 18.6 µM | 52.8% | IC50 (recombinant human PIM1): 0.994 µM
10 | O=C(O)c1ccc2c(c1)nc(NC1CC1)c1nc(Nc3cc(F)cc(F)c3)ncc12 | > 10 µM | 35.4 µM | 46.3% | 
11 | CCCNc1ncc2c(n1)c(NC1CC1)nc1cc(C(=O)O)ccc12 [drawing 1645] |  | 9.37 µM | 13.2% | IC50 [1, 3]: > 10 µM
12 | NC(=O)CCNc1ncc2c(n1)c(Nc1cccc(Cl)c1)nc1cc(C(=O)O)ccc12 |  | 37.7 µM |  | 
13 | O=C(O)c1ccc2c(c1)nc(NC1CC1)c1nc(NNCCO)ncc12 | > 10 µM | > 50 µM | -37% | 
14 | O=C(O)c1ccc2c(c1)nc(NC1CC1)c1nc(NCCN3CCOCC3)ncc12 | > 10 µM | 21 µM | 41.2% | 
15 | O=C(O)c1ccc2c(c1)nc(Nc1cccc(Oc3ccccc3)c1)c1ccncc12 | > 10 µM | > 30 µM | 44.1% | 
16 | O=C(O)c1ccc2c(c1)nc(Nc1cc(F)cc(F)c1)c1nc(NC3CC3)ncc12 |  | 6.02 µM | 48.9% | 
17 | CSc1ncc2c(n1)c(N(C)c1ccccc1)nc1cc(C(=O)O)ccc12 | > 10 µM | > 30 µM | 48.4% | IC50 (recombinant human PIM1): 1.09 µM

Row | SMILES | IC50 [1, 2] | IC50 (Jurkat; Homo sapiens) | inhibition at 0.5 µM (recombinant human PIM1) | other results
18 | CN(C)c1ncc2c(n1)c(NC1CC1)nc1cc(C(=O)O)ccc12 | > 10 µM | > 50 µM | -38.5% | 
19 | C#Cc1cccc(Nc2nc3cc(C(N)=O)ccc3c3cncnc23)c1 | > 10 µM | 31.5 µM | -38.1% | 
20 | O=C(O)c1ccc2c(c1)nc(Nc1ccccc1)c1nc(Nc3ccccc3)ncc12 |  | 8.98 µM | 13% | 
21 | CCOC(=O)CCNC(=O)c1ccc2c(c1)nc(Nc1cccc(C(F)(F)F)c1)c1nc(NC3CC3)ncc12 |  | 7.24 µM | 10.5% | 
22 | O=C(O)c1ccc2c(c1)nc(Nc1cncc(C3CC3)c1)c1ccncc12 [drawing 1619] | > 10 µM | > 50 µM |  | 
23 | CCCNc1ncc2c(n1)c(Nc1ccccc1)nc1cc(C(=O)O)ccc12 |  | 4.53 µM | 29.9% | 
24 | COc1cccc(Nc2ncc3c(n2)c(NC2CC2)nc2cc(C(=O)O)ccc23)c1 [drawing 1720] |  |  |  | IC50 (Jurkat): 3.15 µM; PIM-1: % inh 500 nM (recombinant human PIM1): 60.859%; IC50 (recombinant human PIM1): 0.97 µM
25 | O=C(O)c1ccc2c(c1)nc(NC1CC1)c1nc(NCCO)ncc12 |  | > 50 µM | 22.4% | 
26 | COCCNc1ncc2c(n1)c(Nc1ccccc1)nc1cc(C(=O)O)ccc12 |  | 5.8 µM | 19.8% | 
27 | Clc1cccc(Nc2nc3cc(-c4nnn[nH]4)ccc3c3cscc23)c1 |  |  | 17.9% | IC50 [1, 4]: > 10 µM; IC50 (K-562): > 10 µM; IC50 (MV-4-11): > 10 µM; inhibition at 0.5 µM (recombinant human CK2): 63.3%
28 | Clc1cccc(Nc2nc3cc(-c4nnn[nH]4)ccc3c3ccsc23)c1 |  |  | 31.9% | IC50 [1, 4]: > 10 µM; IC50 (K-562): > 10 µM; IC50 (MV-4-11): 4.47 µM; inhibition at 0.5 µM (recombinant human CK2): 56.2%
29 | CN(C)CCCN(C)c1nc2cc(C#N)ccc2c2sccc12 |  |  | 15.3% | IC50 [1, 4]: 3.92 µM; IC50 (K-562): 7.98 µM; IC50 (MV-4-11): 3.55 µM; inhibition at 0.5 µM (recombinant human CK2): -4.72%
30 | CN(C)c1ncc2c(n1)c(N(C)c1ccccc1)nc1cc(C(=O)O)ccc12 |  |  | 12.2% | IC50 [1, 4]: > 10 µM; IC50 (K-562): > 10 µM; IC50 (MV-4-11): > 10 µM; inhibition at 0.5 µM (recombinant human CK2): 14%
31 | O=C(O)c1ccc2c(c1)nc(NCCc1ccccc1)c1cnccc12 |  |  | 42.2% | IC50 [1, 4]: > 10 µM; IC50 (K-562): > 10 µM; IC50 (MV-4-11): > 10 µM; inhibition at 0.5 µM (recombinant human CK2): -0.531%
32 | CC(C)OCCNc1nc2cc(C(=O)O)ccc2c2cnccc12 |  |  | 48.2% | IC50 [1, 4]: > 10 µM; IC50 (K-562): > 10 µM; IC50 (MV-4-11): 9.46 µM; inhibition at 0.5 µM (recombinant human CK2): 93%
33 | COC(=O)c1ccc2c(c1)nc(N(C)CCc1ccccn1)c1ccncc12 |  |  | -5.84% | IC50 [1, 4]: > 10 µM; IC50 (K-562): > 10 µM; IC50 (MV-4-11): > 10 µM; inhibition at 0.5 µM (recombinant human CK2): -3.68%
34 | CN(CCc1ccccn1)c1nc2cc(C(=O)O)ccc2c2cnccc12 |  |  | 3.73% | IC50 [1, 4]: 0.902 µM; IC50 (K-562): 7.2 µM; IC50 (MV-4-11): 1.54 µM; inhibition at 0.5 µM (recombinant human CK2): 90.8%

More lines, in order of falling IC50 (Jurkat; Homo sapiens), values ahead:

Row | IC50 [1, 2] | IC50 (Jurkat; Homo sapiens) | inhibition at 0.5 µM (recombinant human PIM1) | SMILES | other results
35 |  | 4.41 µM | -12.6% | COC(=O)c1ccc2c(c1)nc(Nc1cccc(Cl)c1)c1nc(NCCC(N)=O)ncc12 | 
36 |  | 4.34 µM | 38.8% | Nc1ncc2c(n1)c(Nc1ccc(F)c(Cl)c1)nc1cc(C(=O)O)ccc12 | 
37 |  | 3.92 µM | 16.7% | O=C(NC1CC1)c1ccc2c(c1)nc(Nc1cccc(C(F)(F)F)c1)c1nc(NC3CC3)ncc12 | 
38 |  | 3.69 µM | 41.6% | C#Cc1cccc(Nc2nc3cc(C(=O)O)ccc3c3cnc(NCCCN4CCOCC4)nc23)c1 | 
39 | > 10 µM | 3.67 µM | 26% | O=C(O)c1ccc2c(c1)nc(N1CCOCC1)c1nc(NC3CC3)ncc12 [drawing 1627] | 
40 |  | 3.65 µM | 16.2% | CNC(=O)c1ccc2c(c1)nc(Nc1cccc(C(F)(F)F)c1)c1nc(NC3CC3)ncc12 | 
41 |  | 3.45 µM | 27.1% | O=C(O)c1ccc2c(c1)nc(NC1CC1)c1nc(NC3CC3)ncc12 [drawing 1616] | IC50 [1, 3]: > 10 µM
42 |  | 3.44 µM | 36.5% | COc1cccc(Nc2nc3cc(C(=O)O)ccc3c3cnc(NC4CC4)nc23)c1 | 
43 |  | 3.06 µM |  | CCNc1ncc2c(n1)c(Nc1cccc(Cl)c1)nc1cc(C(=O)O)ccc12 | 
44 |  | 2.86 µM | 38.9% | CC1CCCCN1CCCNc1ncc2c(n1)c(Nc1ccc(F)c(Cl)c1)nc1cc(C(=O)O)ccc12 (centres unmarked) [drawing 1629] | 
45 |  | 2.67 µM | 45.6% | C#Cc1cccc(Nc2nc3cc(C(=O)O)ccc3c3cnc(NCCC)nc23)c1 | 
46 |  | 2.66 µM | 74.3% | Nc1ncc2c(n1)c(Nc1cccc(C(F)(F)F)c1)nc1cc(C(=O)O)ccc12 | IC50 [1, 3]: > 10 µM; IC50 (recombinant human PIM1): 0.443 µM
47 |  | 2.59 µM | 59.1% | O=C(O)c1ccc2c(c1)nc(Nc1ccc(F)c(Cl)c1)c1nc(NCc3ccccn3)ncc12 | 
48 |  | 2.53 µM |  | O=C(O)c1ccc2c(c1)nc(Nc1cccc(C(F)(F)F)c1)c1ncncc12 | 
49 |  | 2.37 µM | -1.78% | C#Cc1cccc(Nc2nc3cc(C(=O)O)ccc3c3cnc(NCCCOC(C)C)nc23)c1 | 
50 |  | 2.14 µM | 73.3% | CC(C)Nc1ncc2c(n1)c(NC1CC1)nc1cc(C(=O)O)ccc12 | IC50 [1, 3]: > 10 µM; IC50 (recombinant human PIM1): > 1.1 µM
51 | 7.17 µM | 1.95 µM | -28.3% | C#Cc1cccc(Nc2nc3cc(C(=O)NC)ccc3c3cncnc23)c1 | 
52 |  | 1.5 µM | 19.6% | O=C(O)c1ccc2c(c1)nc(Nc1ccc(F)c(Cl)c1)c1nc(NCc3cccnc3)ncc12 | 
53 |  | 1.27 µM | -38.6% | C#Cc1cccc(Nc2nc3cc(C(=O)O)ccc3c3cnc(NC4CC4)nc23)c1 | IC50 [1, 3]: 7.3 µM
54 | > 10 µM | 1.26 µM | 48.3% | Cc1ccc(Nc2nc3cc(C(=O)O)ccc3c3cnccc23)nc1 | IC50 (recombinant human PIM1): > 1.1 µM
55 |  | 1.25 µM | 53% | CN(C)CCNc1ncc2c(n1)c(Nc1ccc(F)c(Cl)c1)nc1cc(C(=O)O)ccc12 | 
56 | > 10 µM | 1.22 µM | -39.8% | CC(=O)Nc1ccc2c(c1)nc(Nc1cccc(C(F)(F)F)c1)c1nc(NC3CC3)ncc12 | 
57 |  | 1.14 µM | 85.7% | Nc1ncc2c(n1)c(Nc1cccc(Cl)c1)nc1cc(C(=O)O)ccc12 | 
58 | 4.77 µM | 1.14 µM | -13.2% | COC(=O)c1ccc2c(c1)nc(N)c1nc(SC)ncc12 | 
59 |  | 1.12 µM | 57.6% | COC(CNc1ncc2c(n1)c(Nc1ccc(F)c(Cl)c1)nc1cc(C(=O)O)ccc12)OC | 
60 |  | 0.413 µM | 22.9% | COCCNc1ncc2c(n1)c(Nc1ccc(F)c(Cl)c1)nc1cc(C(=O)O)ccc12 | 
61 |  | 0.389 µM | 2.19% | C#Cc1cccc(Nc2nc3cc(C(=O)O)ccc3c3cnc(NCCCOCC)nc23)c1 | 
